Test results published in ChEMBL document CHEMBL3885861, “Open TG-GATES”.

Species on record: Rattus norvegicus
Assay: Open TG-GATES - Regimen: Single
Type: toxicity, organism-based, Sprague-Dawley
Parameters: regimen Single, gender Male, age 6 weeks
Conditions: in vivo, po, route gavage; for APTT / Bas / Eos / Fbg / Hb / Ht / Lym / MCH / MCHC / MCV / Mono / Neu / PT / Plat / RBC / Ret / WBC: tissue Blood; for KIDNEY_L / KIDNEY_R / KIDNEY_TOTAL: tissue Kidney; for LIVER: tissue Liver; for ALP / ALT / AST / BUN / CRE / Ca / Cl / DBIL / GLC / IP / K / LDH / Na / PL / RALB / TBIL / TC / TP / gamma-GTP: tissue Plasma
[1] = 5 mg/kg, 3 h, dose level Middle
[2] = 5 mg/kg, 6 h, dose level Middle
[3] = 5 mg/kg, 9 h, dose level Middle
[4] = 5 mg/kg, 24 h, dose level Middle

## O=P1(N(CCCl)CCCl)NCCCO1 (stereo unspecified) [CYCLOPHOSPHAMIDE ANHYDROUS]
2 mg/kg, 24 h, dose level Low
  TERMINAL_BW: 197.9 g
  APTT: 22 s
  Bas: 0%
  Eos: 1%
  Fbg: 284.2 mg/dL
  Hb: 13.3 g/dL
  Ht: 39.7%
  Lym: 82%
  MCH: 21.1 pg
  MCHC: 33.5%
  MCV: 63 fL
  Mono: 2.2%
  Neu: 14.2%
  PT: 17 s
  Plat: 117.1 x10_4/uL
  RBC: 630.8 x10_4/ul
  Ret: 7%
  WBC: 74.3 x10_2/uL
  KIDNEY_L: 0.9 g
  KIDNEY_R: 0.9 g
  KIDNEY_TOTAL: 1.8 g
  LIVER: 9.1 g
  ALP: 1746.6 IU/L
  ALT: 44.6 IU/L
  AST: 72.8 IU/L
  BUN: 17.4 mg/dL
  CRE: 0.2 mg/dL
  Ca: 10.9 mg/dL
  Cl: 106 meq/L
  DBIL: 0 mg/dL
  GLC: 179.6 mg/dL
  IP: 7.5 mg/dL
  K: 4.5 meq/L
  LDH: 207.2 IU/L
  Na: 142.4 meq/L
  PL: 139.6 mg/dL
  RALB: 3 g/dL
  TBIL: 0.006 mg/dL
  TC: 70.6 mg/dL
  TP: 5.5 g/dL
  gamma-GTP: 0.8 IU/L
[1]
  TERMINAL_BW: 186.6 g
  APTT: 22.8 s
  Bas: 0%
  Eos: 0.8%
  Fbg: 290.2 mg/dL
  Hb: 12.9 g/dL
  Ht: 39%
  Lym: 83.6%
  MCH: 21.1 pg
  MCHC: 33.2%
  MCV: 63.7 fL
  Mono: 1.4%
  Neu: 13.6%
  PT: 15.6 s
  Plat: 113 x10_4/uL
  RBC: 611.6 x10_4/ul
  Ret: 8.1%
  WBC: 60.2 x10_2/uL
  KIDNEY_L: 0.8 g
  KIDNEY_R: 0.9 g
  KIDNEY_TOTAL: 1.7 g
  LIVER: 8.3 g
  ALP: 1552.4 IU/L
  ALT: 44.4 IU/L
  AST: 73.4 IU/L
  BUN: 11.2 mg/dL
  CRE: 0.1 mg/dL
  Ca: 10.6 mg/dL
  Cl: 106.4 meq/L
  DBIL: 0 mg/dL
  GLC: 180.6 mg/dL
  IP: 9 mg/dL
  K: 4 meq/L
  LDH: 175.2 IU/L
  Na: 143.8 meq/L
  PL: 137.6 mg/dL
  RALB: 3 g/dL
  TBIL: 0.034 mg/dL
  TC: 81.4 mg/dL
  TP: 5.4 g/dL
  gamma-GTP: 1 IU/L
[2]
  TERMINAL_BW: 189.8 g
  APTT: 22.5 s
  Bas: 0%
  Eos: 0.4%
  Fbg: 311.4 mg/dL
  Hb: 13.1 g/dL
  Ht: 39.4%
  Lym: 78%
  MCH: 21.1 pg
  MCHC: 33.2%
  MCV: 63.6 fL
  Mono: 2.8%
  Neu: 17.8%
  PT: 16.1 s
  Plat: 130.3 x10_4/uL
  RBC: 618.8 x10_4/ul
  Ret: 7.9%
  WBC: 86.9 x10_2/uL
  KIDNEY_L: 0.9 g
  KIDNEY_R: 0.9 g
  KIDNEY_TOTAL: 1.8 g
  LIVER: 8.4 g
  ALP: 1359.6 IU/L
  ALT: 39.6 IU/L
  AST: 66.8 IU/L
  BUN: 8.2 mg/dL
  CRE: 0.1 mg/dL
  Ca: 10.7 mg/dL
  Cl: 107.6 meq/L
  DBIL: 0 mg/dL
  GLC: 172 mg/dL
  IP: 9.5 mg/dL
  K: 4.1 meq/L
  LDH: 162.6 IU/L
  Na: 143.2 meq/L
  PL: 139.4 mg/dL
  RALB: 2.8 g/dL
  TBIL: 0.03 mg/dL
  TC: 77.8 mg/dL
  TP: 5.3 g/dL
  gamma-GTP: 1 IU/L
[3]
  TERMINAL_BW: 193 g
  APTT: 20.2 s
  Bas: 0%
  Eos: 1%
  Fbg: 309 mg/dL
  Hb: 12.6 g/dL
  Ht: 37.9%
  Lym: 71.6%
  MCH: 21.1 pg
  MCHC: 33.3%
  MCV: 63.3 fL
  Mono: 2.6%
  Neu: 24.4%
  PT: 16.3 s
  Plat: 115.7 x10_4/uL
  RBC: 599.6 x10_4/ul
  Ret: 8.6%
  WBC: 57.2 x10_2/uL
  KIDNEY_L: 0.9 g
  KIDNEY_R: 0.9 g
  KIDNEY_TOTAL: 1.8 g
  LIVER: 7.9 g
  ALP: 1360.2 IU/L
  ALT: 35.2 IU/L
  AST: 65.8 IU/L
  BUN: 9 mg/dL
  CRE: 0.1 mg/dL
  Ca: 10.5 mg/dL
  Cl: 106.6 meq/L
  DBIL: 0.002 mg/dL
  GLC: 179.4 mg/dL
  IP: 9.7 mg/dL
  K: 4 meq/L
  LDH: 146.8 IU/L
  Na: 143.6 meq/L
  PL: 129.8 mg/dL
  RALB: 3 g/dL
  TBIL: 0.042 mg/dL
  TC: 76.8 mg/dL
  TP: 5.5 g/dL
  gamma-GTP: 1 IU/L
[4]
  TERMINAL_BW: 203.3 g
  APTT: 22.1 s
  Bas: 0%
  Eos: 1%
  Fbg: 307.6 mg/dL
  Hb: 12.8 g/dL
  Ht: 38.5%
  Lym: 88.4%
  MCH: 21.4 pg
  MCHC: 33.3%
  MCV: 64.1 fL
  Mono: 1.6%
  Neu: 8%
  PT: 16.2 s
  Plat: 134.5 x10_4/uL
  RBC: 600.4 x10_4/ul
  Ret: 7.3%
  WBC: 58.1 x10_2/uL
  KIDNEY_L: 0.9 g
  KIDNEY_R: 0.9 g
  KIDNEY_TOTAL: 1.9 g
  LIVER: 9.4 g
  ALP: 1835.8 IU/L
  ALT: 48.6 IU/L
  AST: 73.2 IU/L
  BUN: 15.4 mg/dL
  CRE: 0.2 mg/dL
  Ca: 10.7 mg/dL
  Cl: 105.2 meq/L
  DBIL: 0.002 mg/dL
  GLC: 180.2 mg/dL
  IP: 8 mg/dL
  K: 4.2 meq/L
  LDH: 156.8 IU/L
  Na: 142.8 meq/L
  PL: 148.4 mg/dL
  RALB: 3 g/dL
  TBIL: 0.014 mg/dL
  TC: 76.2 mg/dL
  TP: 5.5 g/dL
  gamma-GTP: 1 IU/L
15 mg/kg, 3 h, dose level High
  TERMINAL_BW: 195.2 g
  APTT: 21.4 s
  Bas: 0%
  Eos: 0.8%
  Fbg: 291.2 mg/dL
  Hb: 13 g/dL
  Ht: 38.9%
  Lym: 76.2%
  MCH: 21.2 pg
  MCHC: 33.4%
  MCV: 63.4 fL
  Mono: 1.8%
  Neu: 20.2%
  PT: 15.6 s
  Plat: 120 x10_4/uL
  RBC: 613.8 x10_4/ul
  Ret: 8.2%
  WBC: 75.9 x10_2/uL
  KIDNEY_L: 0.9 g
  KIDNEY_R: 0.9 g
  KIDNEY_TOTAL: 1.7 g
  LIVER: 9 g
  ALP: 1506.2 IU/L
  ALT: 38.8 IU/L
  AST: 70.6 IU/L
  BUN: 11 mg/dL
  CRE: 0.1 mg/dL
  Ca: 10.7 mg/dL
  Cl: 105.6 meq/L
  DBIL: 0 mg/dL
  GLC: 179.4 mg/dL
  IP: 9.1 mg/dL
  K: 4.1 meq/L
  LDH: 197.8 IU/L
  Na: 142.6 meq/L
  PL: 136 mg/dL
  RALB: 2.9 g/dL
  TBIL: 0.032 mg/dL
  TC: 71.8 mg/dL
  TP: 5.3 g/dL
  gamma-GTP: 1 IU/L
15 mg/kg, 3 h, dose level Low
  TERMINAL_BW: 191.1 g
  APTT: 16.4 s
  Fbg: 273.4 mg/dL
  Hb: 12.8 g/dL
  Ht: 38.1%
  Lym: 81.6%
  MCH: 21 pg
  MCHC: 33.5%
  MCV: 62.8 fL
  Mono: 2.8%
  Neu: 14.2%
  PT: 13.8 s
  Plat: 112.1 x10_4/uL
  RBC: 608.2 x10_4/ul
  Ret: 8.6%
  WBC: 94.2 x10_2/uL
  KIDNEY_L: 0.8 g
  KIDNEY_R: 0.8 g
  KIDNEY_TOTAL: 1.6 g
  LIVER: 8.5 g
  ALP: 1407.8 IU/L
  ALT: 39 IU/L
  AST: 74.2 IU/L
  BUN: 10.2 mg/dL
  CRE: 0.2 mg/dL
  Ca: 10.9 mg/dL
  DBIL: 0.014 mg/dL
  GLC: 173.8 mg/dL
  IP: 8.1 mg/dL
  K: 4.4 meq/L
  LDH: 64 IU/L
  Na: 141.2 meq/L
  PL: 136.4 mg/dL
  RALB: 2.4 g/dL
  TBIL: 0.056 mg/dL
